According to patent US20260250290A1 (BRISTOL-MYERS SQUIBB COMPANY, priority 2023, published 2026):
Counter-ions that a name gives are not always drawn. Like-named read-outs stand apart in the source and are kept apart here.

Molecular target: T1, full length SGK1 (Homo sapiens, UniProt O00141)
T1 construct: 125 μM full length SGK1 (Life Technologies Part #PR7358A); purchased Life Technologies PR7358A
T1 sequence (O00141 1-431): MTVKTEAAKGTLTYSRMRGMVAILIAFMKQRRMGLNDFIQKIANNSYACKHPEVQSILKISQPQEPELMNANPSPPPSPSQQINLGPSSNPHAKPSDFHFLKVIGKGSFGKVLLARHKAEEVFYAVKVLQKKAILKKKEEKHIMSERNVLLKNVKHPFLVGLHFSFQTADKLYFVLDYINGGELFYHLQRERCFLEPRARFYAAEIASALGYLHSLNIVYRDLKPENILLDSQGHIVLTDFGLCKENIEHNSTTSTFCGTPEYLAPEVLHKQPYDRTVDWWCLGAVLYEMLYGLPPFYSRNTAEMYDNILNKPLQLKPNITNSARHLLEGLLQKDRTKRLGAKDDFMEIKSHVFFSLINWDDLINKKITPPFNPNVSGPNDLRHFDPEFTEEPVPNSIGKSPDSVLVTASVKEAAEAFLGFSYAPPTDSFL
Assay: SGK1 inhibition Assay A (Caliper LabChip electrophoretic separation of fluorescent peptide substrate and phosphorylated product)
Type: biochemical
Details: 20 μM ATP, 40 min incubation

IC50 (Assay A, read-out: SGK1 IC50) [nM]	Compound	IC50 (SGK1 IC50, Assay A) [nM]
48	CS(=O)(=O)c1ccc(-c2cc(N3CCC[C@@H](NC(=O)c4ccnc(N)c4)C3)c3c(N)ncnn23)cc1 [Example 39, (R)-2-amino-N-(1-(4-amino-7-(4-(methylsulfonyl)phenyl)pyrrolo [2,1-f][1,2,4]triazin-5-yl)piperidin-3-yl)isonicotinamide]	
7	NCC(=O)N1CC=C(c2cc(N3CCC[C@@H](NC(=O)c4ccc(Cl)s4)C3)c3c(N)ncnn23)C1 [Example 881, (R)-N-(1-(4-amino-7-(1-glycyl-2,5-dihydro-1H-pyrrol-3-y1)pyrrolo[2,1-f][1,2,4]triazin-5-yl)piperidin-3-y1)-5-chlorothiophene-2-carboxamide]	
	CC(=O)N1CC=C(c2cc(N3CCC[C@@H](NC(=O)c4ccc(S(=O)(=O)F)cc4)C3)c3c(N)ncnn23)C1 [Example 870, (R)-4-((1-(7-(1-acetyl-2,5-dihydro-1H-pyrrol-3-yl)-4-aminopyrrolo[2,1-f][1,2,4]triazin-5-yl)piperidin-3-yl)carbamoyl)benzenesulfonyl fluoride]	32
1	COC(=O)N(C)CCOc1cc(Cl)sc1C(=O)N[C@@H]1CCCN(c2cc(C3=CCN(C(C)=O)C3)n3ncnc(N)c23)C1 [Example 333]	
10	CN(C)CCOc1cc(Cl)sc1C(=O)N[C@@H]1CCCN(c2cc(-c3ccc4nnnn4c3)n3ncnc(N)c23)C1 [Example 192, (R)-N-(1-(4-amino-7-(tetrazolo[1,5-a]pyridin-6-yl)pyrrolo[2,1-f][1,2,4]triazin-5-yl)piperidin-3-yl)-5-chloro-3-(2-(dimethylamino)ethoxy) thiophene-2-carboxamide]	
11	Nc1ncnn2c(-c3cccc(CO)c3)cc(N3CCC[C@@H](NC(=O)c4ccc(Cl)s4)C3)c12 [Example 214, (R)-N-(1-(4-amino-7-(3-(hydroxymethyl)phenyl)pyrrolo[2,1-f][1,2,4]triazin-5-yl)piperidin-3-yl)-5-chlorothiophene-2-carboxamide]	
18	COc1c(-c2cc(N3CCC[C@@H](NC(=O)c4ccc(Cl)s4)C3)c3c(N)ncnn23)ccnc1F [Example 227]	
16	Nc1ncnn2c(-c3ccnc(C(F)F)c3)cc(N3CCC[C@@H](NC(=O)c4ccc(C5=CCNCC5)s4)C3)c12 [Example 553, (R)-N-(1-(4-amino-7-(2-(difluoromethyl)pyridin-4-yl)pyrrolo[2,1-f][1,2,4]triazin-5-yl)piperidin-3-yl)-5-(1,2,3,6-tetrahydropyridin-4-yl)thiophene-2-carboxamide]	
62	Cc1nn(C)cc1-c1cc(N2CCC[C@@H](NC(=O)c3ccc(Cl)s3)C2)c2c(N)ncnn12 [Example 217, (R)-N-(1-(4-amino-7-(1,3-dimethyl-1H-pyrazol-4-yl)pyrrolo[2,1-f][1,2,4]triazin-5-yl)piperidin-3-yl)-5-chlorothiophene-2-carboxamide]	
8	Nc1ncnn2c(C3=CCN(C(=O)c4ncco4)C3)cc(N3CCC[C@@H](NC(=O)c4ccc(Cl)s4)C3)c12 [Example 887, (R)-N-(1-(4-amino-7-(1-(oxazole-2-carbonyl)-2,5-dihydro-1H-pyrrol-3-y1)pyrrolo[2,1-f][1,2,4]triazin-5-y1)piperidin-3-y1)-5-chlorothiophene-2-carboxamide]	
12	C[C@@H]1CN(CCOc2cc(Cl)sc2C(=O)N[C@@H]2CCCN(c3cc(-c4ccnc(C(F)F)c4)n4ncnc(N)c34)C2)C[C@H](C)O1 [Example 296, N-((R)-1-(4-amino-7-(2-(difluoromethyl)pyridin-4-yl)pyrrolo[2,1-f][1,2,4]triazin-5-yl)piperidin-3-yl)-5-chloro-3-(2-((25,6R)-2,6-dimethylmorpholino)ethoxy)thiophone-2-carboxamide]	
15	Nc1ncnn2c(-c3ccnc(F)c3)cc(N3CCC[C@@H](NC(=O)c4cc(Cl)sc4Cl)C3)c12 [Example 157, (R)-N-(1-(4-amino-7-(2-fluoropyridin-4-yl)pyrrolo[2,1-f][1,2,4]triazin-5-yl)piperidin-3-yl)-2,5-dichlorothiophene-3-carboxamide]	
6	Cc1cc(C(=O)N[C@@H]2CCCN(c3cc(-c4ccc(S(C)(=O)=O)cc4)n4ncnc(N)c34)C2)sc1C [Example 89, (R)-N-(1-(4-amino-7-(4-(methylsulfonyl)phenyl)pyrrolo[2,1-f][1,2,4]triazin-5-yl)piperidin-3-yl)-4,5-dimethylthiophene-2-carboxamide]	
88	CN1CCN(c2cccc(C(=O)N[C@@H]3CCCN(c4cc(-c5ccnn5C)n5ncnc(N)c45)C3)n2)CC1 [Example 795, (R)-N-(1-(4-amino-7-(1-methyl-1H-pyrazol-5-yl)pyrrolo[2,1-f][1,2,4]triazin-5-yl)piperidin-3-yl)-6-(4-methylpiperazin-1-yl)picolinamide]	
9	Cn1nccc1-c1cc(N2CCC[C@@H](NC(=O)c3ccc(Cl)s3)C2)c2c(N)ncnn12 [Example 210, (R)-N-(1-(4-amino-7-(1-methyl-1H-pyrazol-5-yl)pyrrolo[2,1-f][1,2,4]triazin-5-yl)piperidin-3-yl)-5-chlorothiophene-2-carboxamide, TFA]	
34	CC(=O)N1CC=C(c2cc(N3CCC[C@@H](NC(=O)c4csnn4)C3)c3c(N)ncnn23)C1 [Example 449, (R)-N-(1-(7-(1-acetyl-2,5-dihydro-1H-pyrrol-3-yl)-4-aminopyrrolo[2,1-f][1,2,4]triazin-5-yl)piperidin-3-yl)-1,2,3-thiadiazole-4-]	
9	CN1CCC(Oc2cc(Cl)sc2C(=O)N[C@@H]2CCCN(c3cc(-c4cncnc4)n4ncnc(N)c34)C2)CC1 [Example 585, (R)-N-(1-(4-amino-7-(pyrimidin-5-yl)pyrrolo[2,1-f][1,2,4]triazin-5-yl)piperidin-3-yl)-5-chloro-3-((1-methylpiperidin-4-yl)oxy)thiophene-2-carboxamide]	
1	NC(=O)c1ccc(-c2cc(N3CCC[C@@H](NC(=O)c4ccc(C(F)F)s4)C3)c3c(N)ncnn23)cc1F [Example 497, (R)-N-(1-(4-amino-7-(4-carbamoyl-3-fluorophenyl)pyrrolo[2,1-f][1,2,4]triazin-5-yl)piperidin-3-yl)-5-(difluoromethyl)thiophene-2-carboxamide]	
10	COC(=O)N1CC=C(c2cc(N3CCC[C@@H](NC(=O)c4sc(C(F)F)cc4OC4COC4)C3)c3c(N)ncnn23)C1 [Example 434, methyl (R)-3-(4-amino-5-(3-(5-(difluoromethyl)-3-(oxetan-3-yloxy)thiophene-2-carboxamido)piperidin-1-yl)pyrrolo[2,1-f][1,2,4]triazin-7-yl)-2,5-dihydro-1H-pyrrole-1-carboxylate]	
4	CN(C)CCOc1cc(Cl)sc1C(=O)N[C@@H]1CCCN(c2cc(-c3ccc(-n4cnnn4)c(F)c3)n3ncnc(N)c23)C1 [Example 188]	
10	CC(=O)NCCC(=O)N1CC=C(c2cc(N3CCC[C@@H](NC(=O)c4ccc(Cl)s4)C3)c3c(N)ncnn23)C1 [Example 915, (R)—N-(1-(7-(1-(3-acetamidopropanoyl)-2,5-dihydro-1H-pyrrol-3-yl)-4-aminopyrrolo[2,1-f][1,2,4]triazin-5-yl)piperidin-3-yl)-5-chlorothiophene-2-carboxamide]	
